Earlier results on 1 compound are cited in patent US12544371B2, “Methods and compositions for treating acute lung injury and acute respiratory distress syndrome” (CalciMedica, Inc., priority 2020, dated 2026).

Entries after “also recorded” stand apart in the source; their conditions may differ.

For series [1] the following is noted: mice, cited from earlier work.
For series [2] the following is noted: cited from earlier work.
For series [3] the following is noted: Gandhirajan et al. 2013; cited from earlier work.

With `Cc1nnsc1C(=O)Nc1ccc(-n2nc(C(F)(F)F)cc2C(F)(F)F)cc1` [BTP2, N-(4-(3,5-bis(trifluoromethyl)-1H-pyrazol-1-yl)phenyl)-4-methyl-1,2,3-thiadiazole-5-carboxamide], the “endothelial cell Ca2+ flux” value in series [1] (delivered 2 hours after systemic endotoxin) is given as “striking reduction”. The “measures of lung injury (endotoxin / lipopolysaccharide-induced)” value in series [1] was “sharp decrease; also recorded: attenuate”. Moreover, the “endothelial lung dysfunction and lung inflammation” value in series [2] (rat ventilator-induced lung injury) is “suppress”. Besides, the ventilator-induced lung injury entry in series [2] (rats) was “attenuate”. Moreover, in series [3], the “infiltration of neutrophils into inflamed lung tissue” value is recorded as “reduced”, the “inflammatory cytokines associated with lung inflammation” value was “down-regulated” and the “vascular permeability in lungs” value is “decreased”.
